The results in this text go back to ChEMBL document CHEMBL1201862, “PubChem BioAssay data set” (2004).

Structures are written as SMILES. Values joined by “and” are separate entries in the source; they are usually repeats but may differ in a detail not shown here. Identical values can stand only once.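 Values below derive from 48-hour exposures of cells grown in 96-well plates, with endpoints linearly interpolated between the two concentrations bracketing the appropriate inhibition level. GI50: concentration for 50% inhibition of growth.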 Active and inactive are the calls of the source. No stated cut-off is given here; in the data, active = GI50 up to about 1.1 µM and inactive = higher.

Some test systems named below: HT-29; NCI-H226; UO-31; SN12C; NCI/ADR-RES; SF-268; A549; NCI-H23; LOX IMVI; 786-0; PC-3; HCC 2998; EKVX; SK-OV-3; HOP-92; U-251; TK-10; T47D; Malme-3M; NCI-H522.
Holding throughout (assay): NCI-60 cell line screen, 48 h

Turning to `Cc1cc(Br)c(N2C3=C(CC4=C2CCCC4=O)C(=O)CCC3)c(Br)c1`, the GI50 with HT-29 was 42.3 µM (inactive); in the assay on NCI-H226, 72.1 µM (inactive); in the assay on UO-31 it was 60.5 µM (inactive); in the assay with SN12C it was 74.1 µM (inactive); with NCI/ADR-RES, 32.1 µM (inactive); with SF-268 it was 75.5 µM (inactive). Also, the GI50 in the assay on A549 was 39.8 µM (inactive); in the assay with NCI-H23, 50.9 µM (inactive); in the assay on LOX IMVI, 23.7 µM (inactive); with 786-0, 96.6 µM (inactive); in the assay on PC-3 it was 18.6 µM (inactive); with HCC 2998, > 100 µM (inactive). The GI50 in the assay with EKVX is 31 µM (inactive); in the assay on SK-OV-3, > 100 µM (inactive); in the assay on HOP-92, 25.6 µM (inactive); in the assay with U-251 it was 32.9 µM (inactive); with TK-10 it was > 100 µM (inactive).
With `O=C1c2c(ccc3c2CCCC3)CC1Cc1ccc2c(c1)CCCC2` (centres undefined), the GI50 is 0.787 µM (active) in the assay with T47D; 17.1 µM (inactive) in the assay on HT-29; > 100 µM (inactive) in the assay with NCI-H226; > 100 µM (inactive) in the assay with UO-31; 45 µM (inactive) with SN12C; > 100 µM (inactive) with SF-268. For the same compound, the GI50 in the assay on A549 was 41.5 µM (inactive); in the assay on NCI-H23 it was 39.5 µM (inactive); in the assay on LOX IMVI it was 63.8 µM (inactive); with 786-0, 64 µM (inactive); in the assay on PC-3, 45.5 µM (inactive); with HCC 2998, 34.6 µM (inactive). The GI50 in the assay with EKVX was 45.5 µM (inactive); in the assay on SK-OV-3 it was > 100 µM (inactive); in the assay on HOP-92, 22 µM (inactive); in the assay with U-251 it was 67 µM (inactive); in the assay with TK-10, > 100 µM (inactive); in the assay on Malme-3M, 54.8 µM (inactive).
On to `Nc1nc(N)c(/N=N/c2ccc(C(=O)O)c(O)c2)c(N)n1`, for which the GI50 in the assay with HT-29, with NCI-H226, with UO-31, with SN12C, with NCI/ADR-RES and with SF-268 was > 100 µM (inactive) throughout. The GI50 was > 100 µM (inactive) in the assay with A549; > 100 µM (inactive) in the assay on NCI-H23; > 100 µM (inactive) in the assay on LOX IMVI; > 100 µM (inactive) in the assay with 786-0; > 100 µM (inactive) with PC-3; 91.6 µM (inactive) in the assay on EKVX. Besides, the GI50 is 26.8 µM (inactive) in the assay on NCI-H522; > 100 µM (inactive) in the assay with SK-OV-3; 92.5 µM (inactive) in the assay on HOP-92; > 100 µM (inactive) in the assay with U-251; > 100 µM (inactive) in the assay on TK-10; > 100 µM (inactive) in the assay on Malme-3M.
Regarding `CCOC1=C/C(=N\Nc2ccc([N+](=O)[O-])cc2)CCC1`, the GI50 with HT-29 was 14.6 µM (inactive); with NCI-H226, 41.9 µM (inactive); in the assay on UO-31, 12.1 µM (inactive); with SN12C, 29.9 µM (inactive); in the assay with NCI/ADR-RES, 30.1 µM (inactive); in the assay with SF-268 it was 11.3 µM (inactive). The GI50 with A549 was 71.6 µM (inactive); in the assay on NCI-H23, 18.5 µM (inactive); with LOX IMVI it was 8.77 µM (inactive); with 786-0, 32.4 µM (inactive); in the assay on PC-3 it was 53.6 µM (inactive); in the assay on EKVX it was 87.9 µM (inactive). In addition, the GI50 with NCI-H522 is 4.45 µM (inactive); in the assay with SK-OV-3, 44.7 µM (inactive); in the assay with HOP-92 it was 39.8 µM (inactive); with U-251, 19.3 µM (inactive); with TK-10 it was 25.5 µM (inactive); with Malme-3M it was 96.2 µM (inactive).
For the compound `O=C1CSC(c2c[nH]c3ccccc23)N1c1ccc(Cl)cc1` (centres undefined), the GI50 with T47D, with HT-29, in the assay with NCI-H226, in the assay with UO-31, in the assay on SN12C and in the assay on NCI/ADR-RES was > 100 µM (inactive) in each case. Further, the GI50 in the assay with SF-268 was > 100 µM (inactive); with A549 it was > 100 µM (inactive); in the assay with NCI-H23, > 100 µM (inactive); with 786-0, > 100 µM (inactive); with HCC 2998 it was > 100 µM (inactive); in the assay with EKVX, 59.7 µM (inactive). In addition, the GI50 in the assay with SK-OV-3 was > 100 µM (inactive); with HOP-92, 2.85 µM (inactive); in the assay with U-251 it was > 100 µM (inactive); in the assay on TK-10, > 100 µM (inactive).
As for `O=C(N/N=C1\C(=O)N(c2nccs2)C(=O)C(=O)C1c1nc2ccccc2s1)c1ccccc1O` (centres undefined), the GI50 in the assay on HT-29 was > 100 µM (inactive); with NCI-H226 it was 71.1 µM (inactive); with UO-31 it was 8.22 µM (inactive); in the assay with SN12C, 39.1 µM (inactive); in the assay on SF-268, 12.1 µM (inactive); in the assay with A549 it was 52.1 µM (inactive). In addition, the GI50 was 29.5 µM (inactive) in the assay with NCI-H23; 44.3 µM (inactive) in the assay with LOX IMVI; > 100 µM (inactive) in the assay on 786-0; 15 µM (inactive) with HCC 2998; > 100 µM (inactive) in the assay on EKVX; 30.2 µM (inactive) with NCI-H522. In addition, the GI50 with SK-OV-3 is > 100 µM (inactive); in the assay with HOP-92 it was > 100 µM (inactive); with U-251, 49.8 µM (inactive); in the assay on TK-10, > 100 µM (inactive); in the assay with Malme-3M, > 100 µM (inactive).
For `NC(=S)N/N=C(\CCC(=O)Nc1ccccc1[N+](=O)[O-])CC(=O)c1ccco1`, the GI50 in the assay with HT-29, in the assay with NCI-H226, in the assay on UO-31, with SN12C, with SF-268 and in the assay on A549 was > 100 µM (inactive) in each case. Moreover, the GI50 in the assay with NCI-H23, in the assay on LOX IMVI, in the assay with 786-0, with HCC 2998, with EKVX and in the assay on NCI-H522 was > 100 µM (inactive) in each case. The GI50 in the assay with SK-OV-3, with HOP-92, with U-251, in the assay on TK-10 and with Malme-3M was > 100 µM (inactive) throughout.
Turning to `N#C/C(=C\c1ccc(O)cc1)C(N)=O`, the GI50 in the assay with HT-29 was > 100 µM (inactive); in the assay with NCI-H226, > 100 µM (inactive) and 69.7 µM (inactive); with UO-31, 61.5 µM (inactive) and 91.6 µM (inactive); in the assay on SN12C it was > 100 µM (inactive); in the assay on NCI/ADR-RES it was > 100 µM (inactive); in the assay on SF-268, > 100 µM (inactive). The GI50 in the assay on A549 was > 100 µM (inactive); in the assay with NCI-H23, > 100 µM (inactive); in the assay with LOX IMVI, > 100 µM (inactive); in the assay with 786-0, > 100 µM (inactive); in the assay with HCC 2998, > 100 µM (inactive); in the assay with EKVX it was > 50.7 µM (inactive). Further, the GI50 in the assay on SK-OV-3, in the assay with HOP-92, with U-251, in the assay on TK-10 and with Malme-3M was > 100 µM (inactive) each time.
Regarding `COc1ccccc1C(O)(c1ccccc1)C(O)(c1ccccc1)c1ccccc1OC` (centres undefined), the GI50 in the assay on HT-29, in the assay on NCI-H226, in the assay with UO-31, with SN12C, in the assay on SF-268 and with A549 was > 100 µM (inactive) in each case. The GI50 in the assay with NCI-H23, with LOX IMVI, in the assay with 786-0, in the assay with HCC 2998, in the assay with EKVX and with NCI-H522 was > 100 µM (inactive) throughout. Besides, the GI50 is > 31.6 µM (inactive) in the assay on SK-OV-3; 20.3 µM (inactive) in the assay with HOP-92; > 100 µM (inactive) in the assay on U-251; > 100 µM (inactive) in the assay with TK-10; > 100 µM (inactive) with Malme-3M.
Regarding `Cc1nc2c(nc1C)C(=O)C1=C(C2=O)C2C=CC1CC2`, the GI50 with HT-29 is 13.9 µM (inactive); in the assay on NCI-H226, 14.5 µM (inactive); in the assay with UO-31, 12.6 µM (inactive); with SN12C, 16.7 µM (inactive); with SF-268, 5.42 µM (inactive); with A549, 19.4 µM (inactive). Further, the GI50 in the assay on NCI-H23 is 4.04 µM (inactive); in the assay on LOX IMVI it was 2.21 µM (inactive); in the assay with 786-0, 11.9 µM (inactive); with HCC 2998, 29.4 µM (inactive); in the assay with EKVX it was 7 µM (inactive); in the assay on NCI-H522, 4.35 µM (inactive). Besides, the GI50 is 40.3 µM (inactive) with SK-OV-3; 1.97 µM (inactive) in the assay on HOP-92; 5.35 µM (inactive) with U-251; 28.8 µM (inactive) in the assay on TK-10; 11.8 µM (inactive) with Malme-3M.
As to `O=S1(=O)NN=C(NCc2ccc(F)cc2)c2ccccc21`, the GI50 in the assay on T47D is > 100 µM (inactive); in the assay on HT-29 it was > 63.1 µM (inactive); in the assay with NCI-H226, > 100 µM (inactive); in the assay on UO-31 it was > 100 µM (inactive); with SN12C, > 100 µM (inactive); in the assay with NCI/ADR-RES, 65.2 µM (inactive). Further, the GI50 was > 100 µM (inactive) in the assay with SF-268; > 90.2 µM (inactive) in the assay with A549; > 100 µM (inactive) in the assay with NCI-H23; 36.3 µM (inactive) with LOX IMVI; > 50.9 µM (inactive) in the assay on 786-0; > 67.6 µM (inactive) in the assay on HCC 2998. For the same compound, the GI50 with EKVX is > 100 µM (inactive); with SK-OV-3, 50.6 µM (inactive); in the assay on HOP-92 it was 24.7 µM (inactive); with U-251 it was 33 µM (inactive); in the assay with Malme-3M it was > 89.3 µM (inactive).
